pEC50: −log10 of the molar value. Values after ≈ are worked out from the molar mass of the structure shown. Where two headings read alike, the source gives them in different places.
Tests used:
[1] = Metabolic stability study in human microsome; assay type: in vitro ADME
Protocol: Human Microsomes were preincubated with test compound for 10 min at 37° C. in 100 mM phosphate buffer, pH 7.4. The reactions were initiated by adding NADPH or NADPH regenerating system to give a final incubation volume of 400 μL. For NADPH system, the final incubations contained 1 μM test compound, 0.5 mg/mL liver microsomal protein, 1 mM NADPH in 100 mM phosphate buffer, pH 7.4. For the NADPH regenerating system, the final incubations contained 1 μM test compound, 0.5 mg/mL liver microsomal protein, 3 mM glucose 6-phosphate, 1 mM NADP, 3 mM MgCl2 and 0.05 mg/mL glucose 6-phosphate dehydrogenase in 100 mM phosphate buffer, pH 7.4. After incubation times of 0, 3, 6, 9, 15 and 30 minutes at 37° C., 50 μL samples was removed and transferred to 150 μL methanol solution which was maintained at 4° C. containing 2 μM tolbutamide (internal standard) to terminating the reaction. Following precipitation and centrifugation, the amount of compound remaining in the samples were determined by LC-MS/MS. Controls of no NADPH or NADPH regenerating system at zero and 30 min were also prepared and analyzed.

HBV [2] = experiment: Anti-HBV activity in vitro in HepG2.2.15 cells (extracellular HBV DNA by qPCR); assay type: cell-based, Hepatitis B virus; conditions: Hepatitis B virus
Description: (§1) HepG2.2.15 and HepDE19 are stably-transfected cell lines containing the HBV genome. Both cell lines are derived from the hepatoblastoma cell line Hep G2 (American Type Culture Collection, ATCC® HB-8065™) by the published procedures described in references: MA Selles et al. Proc. Natl. Acad. Sci. USA 1987, 84, 1005-1009 and H Guo et al. Journal of Virology 2007, 81, 12472-12484, respectively. Both cell lines were maintained in Dulbecco's modified Eagle's medium (DMEM)-F12 medium supplemented with 10% fetal bovine serum, 100 U/mL penicillin, 100 μg/mL streptomycin, and 0.5 mg/mL of G418.
While HepG2.2.15 cells constitutively support HBV replication and production of virus particles, HepDE19 cells are inducible by tetracycline. Addition of 1 μg/mL tetracycline in culture medium suppresses HBV replication in HepDE19 cells, whereas switching to tetracycline-free medium resumes this process.
HepG2.2.15 cells were seeded into 96-well plates (3×10^4 cells in 100 μl media per well) and incubated overnight at 37° C. The test compounds were serially half-log diluted in DMSO, then diluted 100 times in culture media. 100 μL diluted compounds were added into the plates to reach 0.5% final concentration of DMSO in every well. Five days after compound treatment, culture supernatant was collected for further analysis.
For quantitative PCR detection of extracellular HBV DNA, 100 μL culture supernatant was collected and processed in MagNA Pure 96 Nucleic Acid Purification System (Roche Applied Science) for viral DNA extraction. The extracted samples were subjected to HBV DNA quantification by qPCR.
The compounds of the present invention were tested for their capacity to inhibit a HBV activity and activation as described herein.

[3] = Lyophilisation solubility assay (Lysa); assay type: physicochemical; conditions: pH 6.5, aqueous buffer, thermodynamic from solid
Protocol: The aqueous solubility is an important physico-chemical property that plays a significant role in various physical and biological processes. It is desirable to have good solubility which enables good permeability and gastric and intestinal absorption, linear dose proportionality, less PK variability, and easy formulation for PD/PK studies. […] Lyophilisation solubility assay (Lysa) is a well adopted high throughput assay to measure compound solubility in industry.
Samples are prepared in duplicate from 10 mM DMSO stock solutions. After evaporation of DMSO with a centrifugal vacuum evaporator, the residue is solved in 0.05 M phosphate buffer (pH 6.5), stirred for one hour and shaken for two hours. After one night, the solutions is filtered using a microtiter filter plate and the filtrate and its 1/10 dilution are then analyzed by direct UV measurement or by HPLC-UV. […] The results are in μg/mL.

[4] = Cytotoxicity (CC50) in HepDE19 cells, CCK-8 cell viability; assay type: cell-based; conditions: human, HepDE19 cells; read-out: CC50
Description: as §1
Five days after treatment, cell viability was measured by addition of 20 μL of CCK-8 reagent. Two hours after incubation at 37° C., the absorbance at wavelengths of 450 nm and 630 nm (OD450 and OD630) was recorded by a plate reader.

HBV [5] = experiment: Selectivity index (CC50 value/EC50 value); assay type: cell-based, Hepatitis B virus
Description: Based on FDA guidance, in order to support clinical testing in humans, the assessment of acceptable risk-benefit has to be achieved by providing clear evidence of in vitro antiviral activity (EC50) and cytotoxicity (CC50). It is important to establish that an investigational product has antiviral activity at concentrations that can be achieved in vivo without inducing toxic effects to cells. Furthermore, in a cell culture model, apparent antiviral activity of an investigational product can be the result of host cell death after exposure to the product. The relative effectiveness of the compound in inhibiting viral replication compared to inducing cell death is defined as the selectivity index (CC50 value/EC50 value). It is desirable to have a high selectivity index giving maximum antiviral activity with minimal cell toxicity.
The relative effectiveness of the compound in inhibiting viral replication compared to inducing cell death is defined as the selectivity index (CC50 value/EC50 value). It is desirable to have a high selectivity index giving maximum antiviral activity with minimal cell toxicity.

[6] = HepG2.2.15 cells, in-house data, read-out: EC50

Row | Compound | Human Hepatic Clearance [1] | pEC50 (HBV [2]; [6]) | solubility thermodynamic ([3]; phosphate buffer) | pEC50 (HBV [2]; HepG2.2.15) | CC50 at 5 days [4] | Selectivity index (CC50/EC50) (HBV [5]) | solubility thermodynamic [3]
1 | COC(=O)C1=C(CN2CC(F)(F)C[C@H]2C(=O)O)NC(c2nccs2)=N[C@H]1c1ccc(Br)cc1Cl [Example 29, (R)-4-(4-Bromo-2-chloro-phenyl)-6-((S)-2-carboxy-4,4-difluoro-pyrrolidin-1-ylmethyl)-2-thiazol-2-yl-1,4-dihydro-pyrimidine-5-carboxylic acid methyl ester] | 7.65 mL/min/kg | 7.55 | 420 µg/mL (≈ 729 µM) | – | – | – | –
2 | CCOC(=O)C1=C(CN2CCOC[C@H]2C(=O)O)NC(c2nccs2)=N[C@H]1c1ccc(Cl)cc1Cl [Example 39, (S)-4-[(R)-6-(2,4-Dichloro-phenyl)-5-ethoxycarbonyl-2-thiazol-2-yl-3,6-dihydro-pyrimidin-4-ylmethyl]-morpholine-3-carboxylic acid] | 7.18 mL/min/kg | – | > 654 µg/mL | 8.96 | – | – | –
3 | COC(=O)C1=C(CN2CCOC[C@H]2C(=O)O)NC(c2nccs2)=N[C@H]1c1ccc(Br)c(F)c1F [Example 45, (5)-4-[(R)-6-(4-Bromo-2,3-difluoro-phenyl)-5-methoxycarbonyl-2-thiazol-2-yl-3,6-dihydro-pyrimidin-4-ylmethyl]-morpholine-3-carboxylic acid] | 4.69 mL/min/kg | 7.55 | > 695 µg/mL | – | – | – | –
4 | CCOC(=O)C1=C(CN2CC(F)(F)C[C@H]2C(=O)O)NC(c2nccs2)=N[C@H]1c1ccc(C#N)cc1 [Example 48, (S)-6-((S)-2-Carboxy-4,4-difluoro-pyrrolidin-1-ylmethyl)-4-(4-cyano-phenyl)-2-thiazol-2-yl-1,4-dihydro-pyrimidine-5-carboxylic acid ethyl ester] | 3.12 mL/min/kg | 7.55 | > 635 µg/mL | – | – | – | –
5 | CCOC(=O)C1=C(CN2CC(F)(F)C[C@H]2C(=O)O)NC(c2nccn2C)=N[C@H]1c1ccc(F)c(F)c1 [Example 56, (S)-6-((S)-2-Carboxy-4,4-difluoro-pyrrolidin-1-ylmethyl)-4-(3,4-difluoro-phenyl)-2-(1-methyl-1H-imidazol-2-yl)-1,4-dihydro-pyrimidine-5-carboxylic acid ethyl ester] | 2.44 mL/min/kg | 7.82 | > 645 µg/mL | – | – | – | –
6 | COC(=O)C1=C(CN2CCOC[C@@]2(C)C(=O)O)NC(c2nccs2)=N[C@H]1c1ccc(F)c(F)c1Cl [Example 78, (S)-4-[(R)-6-(2-Chloro-3,4-difluoro-phenyl)-5-methoxycarbonyl-2-thiazol-2-yl-3,6-dihydro-pyrimidin-4-ylmethyl]-3-methyl-morpholine-3-carboxylic acid] | 3.22 mL/min/kg | 7.59 | > 653 µg/mL | – | – | – | –
7 | COC(=O)C1=C(CN2C[C@H](C(=O)O)CC(F)(F)C2)NC(c2nc(C)cs2)=N[C@H]1c1ccc(F)cc1Cl [Example 80, (R)-6-((R)-5-Carboxy-3,3-difluoro-piperidin-1-ylmethyl)-4-(2-chloro-4-fluoro-phenyl)-2-(4-methyl-thiazol-2-yl)-1,4-dihydro-pyrimidine-5-carboxylic acid methyl ester] | 4.27 mL/min/kg | 7.57 | 518 µg/mL (≈ 954 µM) | – | – | – | –
8 | CCCOC(=O)C1=C(CN2CCOC[C@H]2C(=O)O)NC(c2nccs2)=N[C@H]1c1ccc(F)cc1Cl [Example 99, (S)-4-[6-(2-Chloro-4-fluoro-phenyl)-5-propoxycarbonyl-2-thiazol-2-yl-3,6-dihydro-pyrimidin-4-ylmethyl]-morpholine-3-carboxylic acid] | 2.13 mL/min/kg | 7.92 | > 677 µg/mL | – | – | – | –
9 | CC(C)OC(=O)C1=C(CN2CCOC[C@H]2C(=O)O)NC(c2nccs2)=N[C@H]1c1ccc(F)c(F)c1 [Example 100, (S)-4-[(S)-6-(3,4-Difluoro-phenyl)-5-isopropoxycarbonyl-2-thiazol-2-yl-3,6-dihydro-pyrimidin-4-ylmethyl]-morpholine-3-carboxylic acid] | 0.1 mL/min/kg | 7.46 | > 656 µg/mL | – | – | – | –
10 | COC(=O)C1=C(CN2CC(F)(F)CC[C@@H]2C(=O)O)NC(c2nccs2)=N[C@H]1c1cccc(F)c1Cl [Example 110, (R)-6-((R)-2-Carboxy-5,5-difluoro-piperidin-1-ylmethyl)-4-(2-chloro-3-fluoro-phenyl)-2-thiazol-2-yl-1,4-dihydro-pyrimidine-5-carboxylic acid methyl ester] | 2.41 mL/min/kg | 7.38 | > 661 µg/mL | – | – | – | –
11 | CCOC(=O)C1=C(CN2CCO[C@H](C)[C@H]2C(=O)O)NC(c2nccs2)=N[C@H]1c1ccc(F)c(F)c1 [Example 112, (2R,3S)-4-[(S)-6-(3,4-Difluoro-phenyl)-5-ethoxycarbonyl-2-thiazol-2-yl-3,6-dihydro-pyrimidin-4-ylmethyl]-2-methyl-morpholine-3-carboxylic acid] | 1.95 mL/min/kg | 8.28 | – | – | 73000 nM | 14123 | –
12 | CCOC(=O)C1=C(CN2CCO[C@H](C)[C@H]2C(=O)O)NC(c2nccs2)=N[C@H]1c1ccc(F)cc1Br [Example 116, (2R,3S)-4-[(R)-6-(2-Bromo-4-fluoro-phenyl)-5-ethoxycarbonyl-2-thiazol-2-yl-3,6-dihydro-pyrimidin-4-ylmethyl]-2-methyl-morpholine-3-carboxylic acid] | 0 mL/min/kg | – | – | 8.74 | – | – | > 735 µg/mL
13 | CCOC(=O)C1=C(CN2CCOC[C@H]2C(=O)O)NC(c2nccs2)=N[C@H]1c1ccc(Cl)c(Br)c1 [Example 124, (3S)-4-[[(4S)-4-(3-Bromo-4-chlorophenyl)-5-ethoxycarbonyl-2-(1,3-thiazol-2-yl)-1,4-dihydropyrimidin-6-yl]methyl]morpholine-3-carboxylic acid] | 2.17 mL/min/kg | 7.54 | > 655 µg/mL | – | – | – | –
14 | CCOC(=O)C1=C(CN2CCOC[C@H]2C(=O)O)NC(c2nccs2)=N[C@H]1c1cc(F)cc(Cl)c1 [Example 125, (3S)-4-[[(4S)-4-(3-Chloro-5-fluorophenyl)-5 ethoxycarbonyl-2-(1,3-thiazol-2-yl)-1,4-dihydropyrimidin-6-yl]methyl]morpholine-3 carboxylic acid] | 1.32 mL/min/kg | 7.52 | > 636 µg/mL | – | – | – | –
